Reference: patent US8999456B2, “Method for manufacturing of drug-releasing stent coated with titanium—oxide thin film” (Industry Foundation of Chonnam National University, priority 2009, dated 2015)

Experiment: Quantity of drug attached to the stent by UV absorbance and calibration curves
Assay type: physicochemical
Settings: FIG. 7
Experimental: In order to measure the quantity of α-lipoic acid and ReoPro attached to the stent, standard solutions with four concentrations were prepared for each drug. Absorbance was measured using a UV spectrometer (Shimadzu 1601, Japan) at 330 nm for α-lipoic acid and at 278 nm for ReoPro. Thus, calibration curves were drawn for α-lipoic acid and ReoPro. Then, in order to measure the quantity of the drugs attached to the stent, each 500 μL of the reaction solution was taken before and after the reaction, which were diluted by mixing with triple distilled water (2.5 mL) and subjected to absorbance measurement at 278 nm and 330 nm, respectively. The measurement result was compared with the calibration curves to determine the quantity of α-lipoic acid and ReoPro attached to the stent.
After binding a drug on the surface of the stent that had been modified with hydroxyl groups, the amount of the bound drug was calculated using the calibration curves. […] Therefore, it can be seen that a 10 to 50 W is ideal for modification of the titanium dioxide thin film using water.

For O=C(O)CCCCC1CCSS1 (stereo not drawn) [α-lipoic acid], the “quantity of attached α-lipoic acid” value (discharge power applied for the surface modification 20 W) was 250 µg, the “quantity of attached α-lipoic acid” value (surface modification at 60 W) was “decreased remarkably” and the “quantity of attached α-lipoic acid” value (thin films modified at 10, 30, 40 and 50 W) was “about 150 μg”.
